ChEMBL document CHEMBL1201862, “PubChem BioAssay data set” (2004)
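Method: 48-hour compound exposure of cells in 96-well plates, five concentrations, linear interpolation of endpoints. GI50 marks 50% less growth.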 Activity calls are given as the source filed them. Cut-off read from the data, not from the text of the source: active = GI50 up to about 1.1 µM and inactive = higher.

Experiments:
Test in all cases: NCI-60 cell line screen, 48 h
A498 = test system: A498
ACHN = test system: ACHN
CCRF-CEM = test system: CCRF-CEM
DLD-1 = test system: DLD-1
DMS-114 = test system: DMS-114
EKVX = test system: EKVX
HCC 2998 = test system: HCC 2998
HCT-116 = test system: HCT-116
HL-60 = test system: HL-60
HOP-62 = test system: HOP-62
HT-29 = test system: HT-29
K562 = test system: K562
KM12 = test system: KM12
LOX IMVI = test system: LOX IMVI
LXFL 529 = test system: LXFL 529
M14 = test system: M14
M19-MEL = test system: M19-MEL
MOLT-4 = test system: MOLT-4
Malme-3M = test system: Malme-3M
NCI-H23 = test system: NCI-H23
NCI-H460 = test system: NCI-H460
NCI-H522 = test system: NCI-H522
OVCAR-3 = test system: OVCAR-3
OVCAR-4 = test system: OVCAR-4
OVCAR-5 = test system: OVCAR-5
RXF 393 = test system: RXF 393
SF-268 = test system: SF-268
SF-539 = test system: SF-539
SK-MEL-28 = test system: SK-MEL-28
SK-MEL-2 = test system: SK-MEL-2
SK-OV-3 = test system: SK-OV-3
SN12C = test system: SN12C
SNB-19 = test system: SNB-19
SNB-75 = test system: SNB-75
SNB-78 = test system: SNB-78
SR = test system: SR
TK-10 = test system: TK-10
U-251 = test system: U-251
UACC-257 = test system: UACC-257
UACC-62 = test system: UACC-62
UO-31 = test system: UO-31
XF498 = test system: XF498
786-0 = test system: 786-0
A549 = test system: A549
HOP-18 = test system: HOP-18
HOP-92 = test system: HOP-92
IGROV-1 = test system: IGROV-1
KM-20L2 = test system: KM-20L2
NCI-H226 = test system: NCI-H226
RPMI-8226 = test system: RPMI-8226
SF-295 = test system: SF-295
SK-MEL-5 = test system: SK-MEL-5
SW-620 = test system: SW-620
CAKI-1 = test system: CAKI-1
HCT-15 = test system: HCT-15
MCF7 = test system: MCF7

COc1c(Cl)cc(Cl)cc1S(=O)O
GI50 (A498): > 100 µM (inactive)
GI50 (ACHN): > 100 µM (inactive)
GI50 (CCRF-CEM): > 100 µM (inactive)
GI50 (DLD-1): > 100 µM (inactive)
GI50 (DMS-114): > 100 µM (inactive)
GI50 (EKVX): > 100 µM (inactive)
GI50 (HCC 2998): > 100 µM (inactive)
GI50 (HCT-116): > 100 µM (inactive)
GI50 (HL-60): > 100 µM (inactive)
GI50 (HOP-62): > 100 µM (inactive)
GI50 (HT-29): > 100 µM (inactive)
GI50 (K562): > 100 µM (inactive)
GI50 (KM12): > 100 µM (inactive)
GI50 (LOX IMVI): > 100 µM (inactive)
GI50 (LXFL 529): > 100 µM (inactive)
GI50 (M14): > 100 µM (inactive)
GI50 (M19-MEL): > 100 µM (inactive)
GI50 (MOLT-4): > 100 µM (inactive)
GI50 (Malme-3M): > 100 µM (inactive)
GI50 (NCI-H23): > 100 µM (inactive)
GI50 (NCI-H460): > 100 µM (inactive)
GI50 (NCI-H522): > 100 µM (inactive)
GI50 (OVCAR-3): > 100 µM (inactive)
GI50 (OVCAR-4): > 100 µM (inactive)
GI50 (OVCAR-5): > 100 µM (inactive)
GI50 (RXF 393): > 100 µM (inactive)
GI50 (SF-268): > 100 µM (inactive)
GI50 (SF-539): > 100 µM (inactive)
GI50 (SK-MEL-28): > 100 µM (inactive)
GI50 (SK-MEL-2): > 100 µM (inactive)
GI50 (SK-OV-3): > 100 µM (inactive)
GI50 (SN12C): > 100 µM (inactive)
GI50 (SNB-19): > 100 µM (inactive)
GI50 (SNB-75): > 100 µM (inactive)
GI50 (SNB-78): > 100 µM (inactive)
GI50 (SR): > 100 µM (inactive)
GI50 (TK-10): > 100 µM (inactive)
GI50 (U-251): > 100 µM (inactive)
GI50 (UACC-257): > 100 µM (inactive)
GI50 (UACC-62): > 100 µM (inactive)
GI50 (UO-31): > 100 µM (inactive)
GI50 (XF498): > 100 µM (inactive)

CCOc1ccc2[nH]c3c(C)c4cc[n+](C)cc4c(C)c3c2c1
GI50 (786-0): 0.149 µM (active)
GI50 (A549): 1.18 µM (inactive)
GI50 (CCRF-CEM): 1.98 µM (inactive)
GI50 (DLD-1): 0.9 µM (active)
GI50 (EKVX): 2.57 µM (inactive)
GI50 (HCC 2998): 3 µM (inactive)
GI50 (HCT-116): 1.82 µM (inactive)
GI50 (HL-60): 4.67 µM (inactive)
GI50 (HOP-18): 2.62 µM (inactive)
GI50 (HOP-92): 1.98 µM (inactive)
GI50 (HT-29): 3.25 µM (inactive)
GI50 (IGROV-1): 2.18 µM (inactive)
GI50 (K562): 1.58 µM (inactive)
GI50 (KM-20L2): 3.35 µM (inactive)
GI50 (KM12): 1.57 µM (inactive)
GI50 (LXFL 529): 0.22 µM (active)
GI50 (M14): 5.81 µM (inactive)
GI50 (NCI-H226): 0.264 µM (active)
GI50 (NCI-H23): 0.929 µM (active)
GI50 (NCI-H460): 1.94 µM (inactive)
GI50 (NCI-H522): 0.838 µM (active)
GI50 (OVCAR-3): 2.52 µM (inactive)
GI50 (OVCAR-4): 2.54 µM (inactive)
GI50 (RPMI-8226): 11.3 µM (inactive)
GI50 (RXF 393): 6.41 µM (inactive)
GI50 (SF-268): 0.184 µM (active)
GI50 (SF-295): 0.125 µM (active)
GI50 (SF-539): 0.363 µM (active)
GI50 (SK-MEL-28): 2.24 µM (inactive)
GI50 (SK-MEL-2): 1.51 µM (inactive)
GI50 (SK-MEL-5): 1.36 µM (inactive)
GI50 (SK-OV-3): 2.88 µM (inactive)
GI50 (SN12C): 0.14 µM (active)
GI50 (SNB-78): 1.09 µM (active)
GI50 (SW-620): 1.28 µM (inactive)
GI50 (U-251): 0.115 µM (active)
GI50 (UACC-257): 2.97 µM (inactive)
GI50 (UACC-62): 1.84 µM (inactive)
GI50 (UO-31): 16.6 µM (inactive)

CC1=C(C)C(=O)O[C@@H]([C@](C)(O)[C@]2(O)CC[C@@]3(O)[C@@H]4C[C@H]5O[C@]56[C@@H](O)C=CC(=O)[C@]6(C)[C@H]4CC[C@]23C)C1
GI50 (A549): 4.01 µM (inactive)
GI50 (CAKI-1): 0.025 µM (active)
GI50 (CCRF-CEM): 0.0851 µM (active)
GI50 (HCC 2998): 1.71 µM (inactive)
GI50 (HCT-116): 0.182 µM (active)
GI50 (HCT-15): 0.137 µM
GI50 (HOP-18): 0.0454 µM (active)
GI50 (HOP-62): 1.11 µM (active)
GI50 (HOP-92): 0.0373 µM (active)
GI50 (HT-29): 0.174 µM (active)
GI50 (IGROV-1): 1.01 µM (active)
GI50 (LOX IMVI): 0.133 µM (active)
GI50 (MCF7): 0.186 µM (active)
GI50 (Malme-3M): 0.33 µM (active)
GI50 (NCI-H226): 11 µM (inactive)
GI50 (NCI-H460): 1.6 µM (inactive)
GI50 (RPMI-8226): 0.0959 µM (active)
GI50 (SF-295): 2.99 µM (inactive)
GI50 (SF-539): 0.774 µM (active)
GI50 (SK-MEL-2): 0.451 µM (active)
GI50 (SK-MEL-5): 0.414 µM (active)
GI50 (SK-OV-3): 6.4 µM (inactive)
GI50 (SN12C): 1.04 µM (active)
GI50 (SNB-19): 2.17 µM (inactive)
GI50 (SNB-75): 0.0468 µM (active)
GI50 (SNB-78): 0.499 µM (active)
GI50 (U-251): 1.88 µM (inactive)
GI50 (UACC-257): 0.308 µM (active)
GI50 (UO-31): 0.587 µM (active)
GI50 (XF498): 0.0912 µM (active)
